The source made the active and inactive calls. The rule behind the calls is not given here.
How the values were obtained:
MV4-11 [1] = experiment: Antitumor activity against human MV4-11 cells expressing Luc-mCh-Puro xenografted in NSG mouse assessed as inhibition of cancer progression at 30 mg/kg, ip qd treated for 31 days measured upto 40 days by bioluminescence imaging analysis; format: functional, organism-based; conditions: time <= 40.0 day
FaDu [2] = experiment: Antiproliferative activity against human FaDu cells assessed as inhibition of cell viability incubated for 72 hrs by ATPlite assay; format: functional, cell-based
[3] = Stability in rat hepatocytes assessed as half life; format: ADME, cell-based, Hepatocyte
[4] = Toxicity in NSG mouse xenografted with human A549 cells assessed as macroscopic adverse events at 30 mg/kg, ip qd treated for 50 days; format: organism-based; conditions: in vivo, 1200 h, time 50 day
SK-OV-3 [5] = experiment: Antitumor activity against human SK-OV-3 cells xenografted in NSG mouse assessed as prolongation of animal survival at 30 mg/kg, ip qd treated for 83 days; format: functional, organism-based; conditions: time 83.0 day
[6] = Toxicity in NSG mouse xenografted with human FaDu cells assessed as macroscopic adverse events at 30 mg/kg, ip qd treated for 20 days; format: organism-based; conditions: in vivo, 480 h, time 20 day
Kasumi 1 = experiment: Antiproliferative activity against human Kasumi 1 cells assessed as inhibition of cell viability incubated for 72 hrs by ATPlite assay; format: functional, cell-based; conditions: Kasumi 1, 72 h
[7] = Unbound AUC in Sprague-Dawley rat at 1 mg/kg/day, iv measured for 24 hrs by LC-MS/MS analysis; format: ADME, organism-based; conditions: in vivo
FaDu [8] = experiment: Antitumor activity against human FaDu cells xenografted in NSG mouse assessed as tumor growth inhibition at 30 mg/kg, ip qd treated for 20 days; format: functional, organism-based; conditions: time 20.0 day
[9] = Toxicity in NSG mouse xenografted with human SK-OV-3 cells assessed as body weight gain at 30 mg/kg, ip qd treated for 83 days; format: organism-based; conditions: in vivo, 1992 h, time 83 day
[10] = Unbound AUC in mouse at 30 mg/kg, ip; format: ADME, organism-based; conditions: in vivo
Cytochrome P450 3A4 = Cytochrome P450 3A4 (Homo sapiens, UniProt P08684); experiment: Inhibition of CYP3A4 (unknown origin); format: ADME
FaDu [11] = experiment: Antitumor activity against human FaDu cells xenografted in NSG mouse assessed as prolongation of animal survival at 30 mg/kg, ip qd treated for 20 days; format: functional, organism-based; conditions: time 20.0 day
[12] = Half life in rat liver microsomes; format: ADME, Microsome
Caov-3 cell line = experiment: Antiproliferative activity against human Caov-3 cells assessed as inhibition of cell viability incubated for 72 hrs by ATPlite assay; format: functional, cell-based; conditions: Caov-3, 72 h
MV4-11 [13] = experiment: Antitumor activity against human MV4-11 cells expressing Luc-mCh-Puro xenografted in NSG mouse administered intraperitoneally once daily measured after 19 days by bioluminescence imaging analysis; conditions: dose 10-30 mg/kg, route ip, time 19.0 day
SK-OV-3 [14] = experiment: Antitumor activity against human SK-OV-3 cells xenografted in NSG mouse assessed as tumor growth inhibition at 30 mg/kg, ip qd treated for 52 days by bioluminescence imaging analysis; format: functional, organism-based; conditions: time 52.0 day
[15] = target: T1, METTL3/METTL14 (Homo sapiens) (UniProt Q86U44+Q9HCE5); experiment: (§1) Inhibition of METTL3/METTL14-mediated m6A mRNA expression in human SK-OV-3 cells incubated for 24 hrs by LC-MS/MS analysis; format: cell-based
METTL3/METTL14 [16] = target: T2, METTL3/METTL14 (Homo sapiens, UniProt Q86U44); experiment: as §1; format: cell-based
Cytochrome P450 2C19 = Cytochrome P450 2C19 (Homo sapiens, UniProt P33261); experiment: Inhibition of CYP2C19 (unknown origin); format: ADME
SK-OV-3 [17] = experiment: Antiproliferative activity against human SK-OV-3 cells assessed as inhibition of cell viability incubated for 72 hrs by ATPlite assay; format: functional, cell-based; conditions: SK-OV-3, 72 h
A549 [18] = experiment: Antitumor activity against human A549 cells xenografted in NSG mouse assessed as tumor growth inhibition at 30 mg/kg, ip qd treated for 50 days by bioluminescence imaging analysis; format: functional, organism-based; conditions: time 50.0 day
[19] = target: T1, METTL3/METTL14 (Homo sapiens); experiment: (§2) Inhibition of METTL3/METTL14-mediated m6A mRNA expression in human FaDu cells incubated for 24 hrs by LC-MS/MS analysis; format: cell-based
METTL3/METTL14 [20] = target: T2, METTL3/METTL14; experiment: as §2; format: cell-based
[21] = Unbound clearance in Sprague-Dawley rat at 1 mg/kg/day, iv measured for 24 hrs by LC-MS/MS analysis; format: ADME, organism-based; conditions: in vivo
[22] = Unbound fraction in Sprague-Dawley rat plasma at 1 mg/kg/day, iv measured for 24 hrs by LC-MS/MS analysis; format: ADME, organism-based; conditions: in vivo
[23] = target: Voltage-gated inwardly rectifying potassium channel KCNH2 (Homo sapiens, UniProt Q12809); experiment: Inhibition of hERG transfected in HEK293 cells at 20 mV; format: toxicity, cell-based
MV4-11 [24] = experiment: Antiproliferative activity against human MV4-11 cells assessed as inhibition of cell viability incubated for 72 hrs by ATPlite assay; format: functional, cell-based; conditions: MV4-11, 72 h
[25] = Stability in human hepatocytes assessed as half life; format: ADME, cell-based, Hepatocyte
A549 [26] = experiment: Antitumor activity against human A549 cells xenografted in NSG mouse assessed as prolongation of animal survival at 30 mg/kg, ip qd treated for 50 days; format: functional, organism-based; conditions: time 50.0 day
METTL3/METTL14 [27] = target: T2, METTL3/METTL14; experiment: Displacement of [3H]-SAM from METTL3/METTL14 (unknown origin) using 5'biotinylated-UACACUCGAUCUGGACUAAAGGUGCUC-3' RNA as substrate preincubated for 10 mins followed by substrate/[3H]-SAM addition measured after 90 mins by SPA; format: protein-complex assay
[28] = target: T1, METTL3/METTL14 (Homo sapiens); experiment: (§3) Inhibition of METTL3/METTL14-mediated m6A mRNA expression in human MV4-11 cells incubated for 24 hrs by LC-MS/MS analysis; format: cell-based
METTL3/METTL14 [29] = target: T2, METTL3/METTL14; experiment: as §3; format: cell-based
Cytochrome P450 2D6 = Cytochrome P450 2D6 (Homo sapiens, UniProt P10635); experiment: Inhibition of CYP2D6 (unknown origin); format: ADME
Cytochrome P450 2C9 = Cytochrome P450 2C9 (Homo sapiens, UniProt P11712); experiment: Inhibition of CYP2C9 (unknown origin); format: ADME
MV4-11 [30] = experiment: Antitumor activity against human MV4-11 cells expressing Luc-mCh-Puro xenografted in NSG mouse assessed as decrease in hCD45+ cells in bone marrow at 30 mg/kg, ip qd measured after 28 days by flow cytometry; format: functional, organism-based; conditions: time 28.0 day
[31] = Lipophilicity, logD of compound in 1-octanol/PBS at pH 7.4 incubated for 24 hrs by HPLC analysis; format: physicochemical
NCI-H1650 = experiment: Growth inhibition of human NCI-H1650 cells spheroid model; format: functional, cell-based
MV4-11 [32] = experiment: Induction of apoptosis in human MV4-11 cells incubated for 48 hrs by Caspase-Glo 3/7 assay; format: functional, cell-based
[33] = system: Acute myeloid leukemic cell; experiment: Antitumor activity against patient-derived human Acute myeloid leukemic cells xenografted in NSG mouse assessed as prolongation of animal survival at 30 mg/kg, ip qd treated for 91 days measured upto 112 days; format: functional, organism-based; conditions: time <= 112.0 day

T2 sequence (Q86U44 whole entry): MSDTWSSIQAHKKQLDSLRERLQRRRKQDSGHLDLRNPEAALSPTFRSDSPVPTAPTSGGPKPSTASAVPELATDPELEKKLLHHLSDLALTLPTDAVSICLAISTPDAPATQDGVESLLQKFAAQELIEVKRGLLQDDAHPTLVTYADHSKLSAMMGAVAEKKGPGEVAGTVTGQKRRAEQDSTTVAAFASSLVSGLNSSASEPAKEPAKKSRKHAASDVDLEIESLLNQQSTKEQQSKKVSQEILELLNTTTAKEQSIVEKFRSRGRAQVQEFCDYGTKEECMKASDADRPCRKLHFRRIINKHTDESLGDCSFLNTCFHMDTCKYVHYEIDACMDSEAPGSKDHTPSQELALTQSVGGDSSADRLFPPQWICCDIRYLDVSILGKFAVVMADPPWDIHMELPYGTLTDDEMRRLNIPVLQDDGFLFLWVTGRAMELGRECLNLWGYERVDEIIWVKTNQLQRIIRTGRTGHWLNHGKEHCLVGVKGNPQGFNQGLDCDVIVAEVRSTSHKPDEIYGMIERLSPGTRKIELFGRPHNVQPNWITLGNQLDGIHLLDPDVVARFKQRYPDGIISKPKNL
T2 sequence (Q9HCE5 whole entry, further chain): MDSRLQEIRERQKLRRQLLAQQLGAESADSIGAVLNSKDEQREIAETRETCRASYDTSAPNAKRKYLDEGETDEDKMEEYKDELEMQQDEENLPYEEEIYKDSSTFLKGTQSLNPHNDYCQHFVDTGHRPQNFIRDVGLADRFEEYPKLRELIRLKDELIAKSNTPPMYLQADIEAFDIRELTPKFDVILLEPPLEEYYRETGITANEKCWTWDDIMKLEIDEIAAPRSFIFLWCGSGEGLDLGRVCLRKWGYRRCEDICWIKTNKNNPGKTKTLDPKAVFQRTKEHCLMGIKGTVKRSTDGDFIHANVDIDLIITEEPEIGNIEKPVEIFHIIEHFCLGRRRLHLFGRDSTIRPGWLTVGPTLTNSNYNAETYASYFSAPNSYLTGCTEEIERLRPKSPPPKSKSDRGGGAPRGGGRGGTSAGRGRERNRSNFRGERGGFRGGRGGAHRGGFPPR
Sequence of Cytochrome P450 3A4 (P08684 whole entry): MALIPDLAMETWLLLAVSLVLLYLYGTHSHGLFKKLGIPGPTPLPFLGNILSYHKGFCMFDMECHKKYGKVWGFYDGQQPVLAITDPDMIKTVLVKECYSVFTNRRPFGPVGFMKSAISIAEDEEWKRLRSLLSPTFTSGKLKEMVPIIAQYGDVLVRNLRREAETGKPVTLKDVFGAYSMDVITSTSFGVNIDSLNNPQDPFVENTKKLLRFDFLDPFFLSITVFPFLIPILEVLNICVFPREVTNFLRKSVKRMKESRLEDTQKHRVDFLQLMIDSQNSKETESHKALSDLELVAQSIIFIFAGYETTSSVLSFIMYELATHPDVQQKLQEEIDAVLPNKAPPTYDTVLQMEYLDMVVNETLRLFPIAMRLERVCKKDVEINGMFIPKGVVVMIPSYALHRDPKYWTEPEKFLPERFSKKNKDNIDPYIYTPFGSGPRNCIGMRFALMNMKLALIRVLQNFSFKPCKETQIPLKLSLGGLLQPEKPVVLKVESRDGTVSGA
Sequence of Cytochrome P450 2C19 (P33261 whole entry): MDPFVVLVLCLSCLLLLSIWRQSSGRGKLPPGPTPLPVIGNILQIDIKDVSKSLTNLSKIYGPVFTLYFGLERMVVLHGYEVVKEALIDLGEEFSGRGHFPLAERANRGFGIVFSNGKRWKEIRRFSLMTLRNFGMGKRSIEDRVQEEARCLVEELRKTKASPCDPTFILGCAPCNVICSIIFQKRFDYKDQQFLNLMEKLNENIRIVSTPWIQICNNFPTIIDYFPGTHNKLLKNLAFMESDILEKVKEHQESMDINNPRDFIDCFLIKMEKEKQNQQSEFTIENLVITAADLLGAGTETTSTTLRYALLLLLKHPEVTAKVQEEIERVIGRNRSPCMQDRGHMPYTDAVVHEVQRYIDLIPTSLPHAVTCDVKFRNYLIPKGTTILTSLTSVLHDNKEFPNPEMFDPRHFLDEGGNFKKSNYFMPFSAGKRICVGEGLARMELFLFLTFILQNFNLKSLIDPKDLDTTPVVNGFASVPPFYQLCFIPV
Sequence of Cytochrome P450 2D6 (P10635 whole entry): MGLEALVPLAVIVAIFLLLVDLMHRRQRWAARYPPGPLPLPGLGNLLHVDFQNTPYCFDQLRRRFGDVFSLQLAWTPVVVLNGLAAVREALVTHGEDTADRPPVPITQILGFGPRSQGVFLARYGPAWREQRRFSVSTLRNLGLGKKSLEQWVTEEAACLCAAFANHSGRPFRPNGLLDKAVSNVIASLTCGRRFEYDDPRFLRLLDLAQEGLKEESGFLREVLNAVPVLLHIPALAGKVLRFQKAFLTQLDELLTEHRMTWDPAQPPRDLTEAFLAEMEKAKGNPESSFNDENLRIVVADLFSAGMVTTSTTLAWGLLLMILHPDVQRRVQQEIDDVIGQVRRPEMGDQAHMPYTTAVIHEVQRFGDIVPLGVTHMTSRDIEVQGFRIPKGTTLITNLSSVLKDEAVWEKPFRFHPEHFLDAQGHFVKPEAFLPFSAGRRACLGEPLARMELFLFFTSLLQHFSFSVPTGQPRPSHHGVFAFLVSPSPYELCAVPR
Sequence of Cytochrome P450 2C9 (P11712 whole entry): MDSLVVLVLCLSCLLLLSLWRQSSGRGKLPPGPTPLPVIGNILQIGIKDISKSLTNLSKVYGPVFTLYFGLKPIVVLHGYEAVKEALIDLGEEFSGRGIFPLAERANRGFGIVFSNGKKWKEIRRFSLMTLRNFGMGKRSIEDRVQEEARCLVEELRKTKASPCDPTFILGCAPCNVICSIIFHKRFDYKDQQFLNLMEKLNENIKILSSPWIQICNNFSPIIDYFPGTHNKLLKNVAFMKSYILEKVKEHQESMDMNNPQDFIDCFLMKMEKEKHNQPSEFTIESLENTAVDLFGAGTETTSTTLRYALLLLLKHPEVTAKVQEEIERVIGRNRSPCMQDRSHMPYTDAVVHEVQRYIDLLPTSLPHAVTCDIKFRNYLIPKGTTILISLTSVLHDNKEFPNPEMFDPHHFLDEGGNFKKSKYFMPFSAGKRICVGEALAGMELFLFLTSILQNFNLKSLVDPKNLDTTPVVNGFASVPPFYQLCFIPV
Sequence of Voltage-gated inwardly rectifying potassium channel KCNH2 (Q12809 whole entry): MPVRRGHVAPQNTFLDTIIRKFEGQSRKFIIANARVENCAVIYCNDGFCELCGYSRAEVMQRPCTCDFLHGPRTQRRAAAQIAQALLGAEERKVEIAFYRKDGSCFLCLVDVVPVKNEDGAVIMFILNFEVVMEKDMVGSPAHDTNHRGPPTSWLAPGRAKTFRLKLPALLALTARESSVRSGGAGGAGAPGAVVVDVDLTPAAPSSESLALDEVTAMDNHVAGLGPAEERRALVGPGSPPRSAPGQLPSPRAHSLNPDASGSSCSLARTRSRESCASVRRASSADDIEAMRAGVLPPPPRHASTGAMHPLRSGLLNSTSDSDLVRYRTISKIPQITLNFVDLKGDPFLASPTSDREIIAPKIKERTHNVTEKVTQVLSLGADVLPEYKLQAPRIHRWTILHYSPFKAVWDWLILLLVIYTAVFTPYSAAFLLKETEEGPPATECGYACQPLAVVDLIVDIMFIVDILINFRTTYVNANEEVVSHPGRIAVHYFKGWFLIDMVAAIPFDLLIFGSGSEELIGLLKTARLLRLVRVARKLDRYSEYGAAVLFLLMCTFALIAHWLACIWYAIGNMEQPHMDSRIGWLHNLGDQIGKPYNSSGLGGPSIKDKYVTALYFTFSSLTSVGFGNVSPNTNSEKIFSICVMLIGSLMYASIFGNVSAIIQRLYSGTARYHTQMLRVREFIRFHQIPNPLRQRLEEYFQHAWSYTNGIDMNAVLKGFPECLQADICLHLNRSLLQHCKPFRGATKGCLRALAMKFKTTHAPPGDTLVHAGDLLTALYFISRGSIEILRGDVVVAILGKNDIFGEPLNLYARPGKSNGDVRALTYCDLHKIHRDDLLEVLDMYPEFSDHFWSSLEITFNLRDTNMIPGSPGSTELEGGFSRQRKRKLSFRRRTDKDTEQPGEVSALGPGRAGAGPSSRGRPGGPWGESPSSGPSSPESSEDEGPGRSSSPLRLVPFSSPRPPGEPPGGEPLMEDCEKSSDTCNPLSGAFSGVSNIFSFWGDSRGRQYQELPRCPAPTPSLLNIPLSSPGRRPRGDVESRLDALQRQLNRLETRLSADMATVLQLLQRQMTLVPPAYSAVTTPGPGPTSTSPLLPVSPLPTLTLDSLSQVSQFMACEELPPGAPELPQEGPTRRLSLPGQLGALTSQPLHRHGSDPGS

With `C[C@@H](n1cc(-c2cncc(N(C)C)c2)nn1)n1ccc(N2CCC[C@@H](NCC3CC3)C2)cc1=O` the inhibition (MV4-11 [1]) was “Active”, the IC50 (FaDu [2]) was 50 nM and the half-life [3] was > 4 h. For the same molecule, the Activity [4] was “Non-toxic”, the Activity (SK-OV-3 [5]) was “Active” and the Activity [6] was “Non-toxic”. For the same molecule, the IC50 (Kasumi 1) was 37 nM, the fAUC [7] was 5.1 µM·min and the inhibition (FaDu [8]) was “Active”. The Activity [9] was “Non-toxic”, the fAUC [10] was 175.8 µM·min and the IC50 (Cytochrome P450 3A4) was 900 nM. The Activity (FaDu [11]) was “Active”, the half-life [12] was 1.52 h and the IC50 (Caov-3 cell line) was 20 nM. For the same molecule, the Activity (MV4-11 [13]) was “Dose-dependent-effect”, the inhibition (SK-OV-3 [14]) was “Active” and the inhibition [15] was “Dose-dependent-effect”. For the same molecule, the IC50 (METTL3/METTL14 [16]) was 3 nM, the IC50 (Cytochrome P450 2C19) was > 100000 nM and the IC50 (SK-OV-3 [17]) was 11 nM. For the same molecule, the inhibition (A549 [18]) was “Active”, the inhibition [19] was “Dose-dependent-effect” and the IC50 (METTL3/METTL14 [20]) was 6 nM. For the same molecule, the CL free [21] was 358 mL/min/kg, the Fu [22] was 23% and the IC50 [23] was > 30000 nM. The IC50 (MV4-11 [24]) was 234 nM, the half-life [25] was > 4 h and the Activity (A549 [26]) was “Active”. The IC50 (METTL3/METTL14 [27]) was 2 nM, the inhibition [28] was “Dose-dependent-effect” and the IC50 (METTL3/METTL14 [29]) was 5 nM. The IC50 (Cytochrome P450 2D6) was > 100000 nM, the IC50 (Cytochrome P450 2C9) was > 100000 nM and the Activity (MV4-11 [30]) was “Active”. For the same molecule, the logD at 24 h [31] was 1.16, the IC50 (NCI-H1650) was 99 nM and the Activity (MV4-11 [32]) was “Active”. The Activity [33] was “Active”.
